These results are taken from patent US6399655B1, “Method for the prophylactic treatment of cataracts” (Johns Hopkins University, School of Medicine, priority 1998, dated 2002).

Data set [1] concerns Zucker diabetic fatty (ZDF, fa/fa) rats. In words: Cataract formation in Zucker diabetic fatty rats fed genistein in chow for six months. The data set is classed as in vivo, rat. The protocol:
(§1) Thirty pair of litter mates of Zucker rats, i.e., thirty male retired breeder Zucker diabetic fatty (ZDF, fa/fa) rats and thirty male retired breeder lean Zucker (fa/+) rats, were obtained (Genetic Models, Inc., Indianapolis, Ind.). The animals were treated in accordance with The Association for Research in Vision and Ophthalmology (ARVO) Statement for the Use of Animals in Ophthalmic and Vision Research. The average blood glucose value was more than 500 mg/dl for the Zucker diabetic fatty rats and 120 mg/dl for the control lean rats as measured by glucose oxidase assay at the time of death (Danis et al. (1993), supra).
(§2) Zucker diabetic fatty rats were divided into four groups and fed Purina 5008 rat chow containing varying concentrations of genistein: 0 mg/kg chow, 75 mg/kg chow, 150 mg/kg chow and 300 mg/kg chow. Cataract formation was assessed after six months of treatment. The extent of cataract formation was determined after dilating pupils with phenylephrine (2.5%) and Tropicamide (1%) in rats under general anesthesia resulting from intraperitoneal injections of ketamine (40 mg/kg) and xylazine (4 mg/kg). Disease progression was categorized as total cataract, partial cataract (mainly minimal posterior subcapsular cataract), or no cataract.

The next data set relates to lean Zucker (fa/+) rats. In words: Cataract formation in lean Zucker control rats fed genistein in chow. The note with it: lean Zucker rats, 0, 75, 150 or 300 mg Genistein/kg chow, six months. In kind it is in vivo, rat. The protocol: as §1, §2
Zucker lean rats were also divided into 4 groups and fed Purina 5008 chow containing 0, 75, 150 or 300 mg Genistein/ kg chow. […]

In another data set the test system is retina. In words: Retinal toxicity by electroretinography after oral genistein. The note with it: 75 mg/kg/day to 300 mg/kg/day, six months, Zucker diabetic fatty rats. In kind it is in vivo. The text has this: (§3) An advantage of genistein is that it is very safe and efficacious. […] Also, no effect of orally administered genistein was found with respect to the weight of the ovaries and the uterus in female rats.

The nature of data set [2]: Food intake and body weight after oral genistein. In kind it is in vivo. The note with it: oral administration, male and female rats.
From the text: as §3

Data set [3] is described as follows: Weight of the ovaries and the uterus after oral genistein. In kind it is in vivo. The note with it: oral administration, female rats.
From the text: as §3

For the compound `O=c1c(-c2ccc(O)cc2)coc2cc(O)cc(O)c12` [genistein, 5,7-dihydroxy-3-(4-hydroxyphenyl)-4H-1-benzopyran-4-one], in data set [1] (75 mg/kg chow, n = 7), the “Partial Cataract (number of rats)” value came to 3 and the “Total Cataract (number of rats)” value is 4. For the same compound, in data set [1] (150 mg/kg chow, n = 8), the “No Cataract (number of rats)” value is listed as 2, the “Partial Cataract (number of rats)” value came out at 2 and the “Total Cataract (number of rats)” value is recorded as 4. In addition, in data set [1] (300 mg/kg chow, n = 8), the “Partial Cataract (number of rats)” value was determined as 3 and the “Total Cataract (number of rats)” value came to 5. Also, in data set [1] (75-300 mg/kg chow), the “Inhibition of cataract formation” value is reported as “significantly inhibits cataract formation”. Besides, the “Cataracts in lean control rats” value with lean Zucker (fa/+) rats is “not present”. In the data set on retina, the “Toxicity to the retina as measured by electroretinography” value is “nontoxic to the retina”. Besides, in data set [2], the “Effect on body weight” value is listed as “no effect” and the “Effect on food intake” value is on record as “no effect”. In data set [3], the “Effect on weight of the ovaries and the uterus” value was “no effect”.
